Consider six compounds from patent US5039689A, “Antiparasitic 3(4-amino benzotriazo-1-yl-)1,2-cyclopentanediols” (Burroughs Wellcome Co., priority 1988, dated 1991).

In data set [1] the test system is Trypanosoma brucei gambiense. Briefly: Activity against Trypanosoma brucei gambiense (procyclic culture, 5 days, density by Coulter Counter). The following applies: 120 h, T. brucei gambiense procyclic TH114, medium PDM-79, 27° C., read-out: I50. It is filed as cell-based, T. brucei subsp. gambiense procyclic (strain TH114). As to the method: A) Activity against Trypanosoma brucei gambiense 1. T. brucei subsp. gambiense procyclic (strain TH114 from the Institut fur Schiffs und Tropenkrankheiten, Hamburg) were grown in medium PDM-79 (Fish et al; BBA714[1982]422-428) in 25 cm^2 tissue (T-25) culture flasks at 27° C. in a 5% CO^2 /air atmosphere. Drugs were dissolved in 0.1N NaOH and their concentration determined from their spectral data. Drugs were added to the PDM-79 at a volume≤1% of the total volume and the drug containing medium filter-sterilised into T-25 flasks. Flasks were inoculated to a final density of ≈10^5 /ml and incubated for 5 days at which time their density was determined by a Coulter Counter (Model ZB1). Results were expressed as % inhibition relative to the controls.

A further data set relates to Pneumocystis carinii. Kind of data set: Activity against Pneumocystis carinii (method of Pesanti). It is filed as cell-based. To be noted: read-out: I50. As to the method: (B) Activity against Pneumocystis carinii
The compounds were tested according to the method of Pesanti, (J. Infect. Dis., 141(6), 775-780, 1980).

A short description of data set [2]: Oral toxicology test in rats. It is filed as in vivo. The following applies: Charles River CD rats, 4 mg/kg for 30 days. As to the method:
Charles River CD rats were given oral doses of the compound of Example 3 at 4 mg/kg for 30 days.

For `Nc1ncnc2c1ncn2[C@@H]1CC[C@@H](O)[C@H]1O` (relative stereo) [Example 1C, (±)-(1R*,2S*,3R*)-3-(6-Amino-9H-purin-9-yl)-1,2-cyclopentanediol], the IC50 in data set [1] turned out to be 0.7 nM. `Nc1ncnc2c1ncn2[C@H]1CC[C@@H](O)[C@H]1O` (relative stereo) [Example 2, (±)-(1R*,2S*,3S*)-3-(6-Amino-9H-purin-9-yl)-1,2-cyclopentanediol]: the IC50 in data set [1] was 1000 nM; with Pneumocystis carinii, < 20000 nM. As for `Nc1ncnc2c1nnn2[C@@H]1CC[C@@H](O)[C@H]1O` (relative stereo) [Example 3C, (±)-(1R*,2S*,3R*)-3-(7-Amino-3H-1,2,3-triazolo[4,5-d]pyrimidin-3-yl)-1,2-cyclopentanediol], the IC50 in data set [1] is 200 nM; in the data set on Pneumocystis carinii it was < 20000 nM. The “treatment-related changes with respect to clinical signs of toxicity, body weight, clinical pathology or pathology” value in data set [2] was “No treatment-related changes were observed”.

In the case of `Nc1ncnc2c1ncn2[C@@H]1C[C@H](CCl)[C@@H](O)[C@H]1O` (relative stereo) [Example 4, (±)-(1R*,2S*,3R*,5S*)-3-(6-Amino-9H-purin-9-yl)-5-(chloromethyl)-1,2-cyclopentanediol], the IC50 in data set [1] came out at 3500 nM. Still for that read-out and setting: in the case of `C[C@H]1C[C@@H](n2cnc3c(N)ncnc32)[C@H](O)[C@@H]1O` (relative stereo) [Example 5, (±)-(1R*,2S*,3R*,5S*)-3-(6-Amino-9H-purin-9-yl)-5-methyl-1,2-cyclopentanediol] it was 2 nM; in that of `NC(=O)[C@@H]1C[C@H](n2cnc3c(N)ncnc32)[C@@H](O)[C@H]1O` (relative stereo) [Example 6, (±)-(1R*,2S*,3R*,4S*)-4-(6-Amino-9H-purin-9-yl)-2,3-dihydroxy-1-cyclopentanecarboxamide], 40 to 200 nM.
